The target in assay [1] is T1, human PPAR γ 2 (Homo sapiens, UniProt P37231).
T1 construct: expressed in transfected cells; host or cells: human osteosarcoma MG63, transiently co-transfected with pSG5-hPPARg and the reporter pGV-P2-PPRE
T1 sequence (P37231 1-505): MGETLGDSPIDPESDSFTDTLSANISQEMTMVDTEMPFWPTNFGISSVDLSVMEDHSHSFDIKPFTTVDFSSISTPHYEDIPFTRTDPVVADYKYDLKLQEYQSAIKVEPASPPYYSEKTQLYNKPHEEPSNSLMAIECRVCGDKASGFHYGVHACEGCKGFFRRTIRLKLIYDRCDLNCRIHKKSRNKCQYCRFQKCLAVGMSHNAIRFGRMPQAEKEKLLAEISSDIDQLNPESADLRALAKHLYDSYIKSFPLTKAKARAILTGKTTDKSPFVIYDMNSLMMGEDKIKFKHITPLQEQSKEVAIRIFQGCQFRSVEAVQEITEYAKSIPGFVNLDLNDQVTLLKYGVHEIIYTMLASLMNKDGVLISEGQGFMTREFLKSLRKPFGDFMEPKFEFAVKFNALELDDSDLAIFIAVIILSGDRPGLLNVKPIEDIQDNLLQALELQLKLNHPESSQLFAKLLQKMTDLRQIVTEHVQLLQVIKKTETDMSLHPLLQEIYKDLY
The assay can be described thus: PPAR γ transcriptional activity, luciferase reporter, test compound alone. The class given is cell-based. Conditions: concentration indicating Emax/2, MG63 cells transfected with pSG5-hPPARg and pGV-P2-PPRE, 24 hr. The protocol:
The primers of the polymerase chain reaction (hereinafter “PCR”) were designed according to the gene sequence of human PPAR γ 2 (GenBANK accession No. D83233). In order to insert the genes into the BamHI site of the plasmid pSG5 ([…] CLONING SYSTEMS), Bgl II sites were added upstream and downstream of the genes encoding human PPAR γ 2 protein. For this, 2 kinds of polynucleotides shown in the sequence numbers 1 and 2 in the sequence table described below (hereinafter “S1” and “AS1”, respectively) were used as PCR primers.
In order to determine transcriptional activity via PPAR γ, 2 kinds of polynucleotides represented in sequence numbers 3 and 4 in the sequence table described below (hereinafter “S2” and “AS2”, respectively) were used for construction of the reporter plasmid having PPAR responsive element. The DNA fragment inserted was designed based on the gene sequence in the promoter region of rat acylCo-A oxidase (J. D. Tugwood, EMBO J., 11 (2), pp433-439 (1992)). For insertion of the DNA fragment into the reporter plasmid pGV-P2 (TOYO INK MFG CO., LTD), a NheI site and an XhoI site were added to the S2 and AS2, respectively.
Using cDNA library (Clontech) derived from human adipose tissue as a template, DNA oligomers S1 and AS1 that were synthesized in the procedure 1 as primers and Ex-Taq™ (TAKARA BIO INC.) as a thermostable DNA polymerase-PCR was carried out. As a result of the PCR, the c.a. 1500 bps DNA fragments were amplified. Each cycle consisted of incubation at 94° C. for 1 min for denaturation of the template, then at 55° C. for 30 sec for annealing of DNA oligomers the PCR primer, and then at 72° C. for 30 sec for extension of the chain. The obtained DNA fragments with approximately 1500 base pairs were digested at the Bgl II sites and were inserted into BamHI sites of pSG5. Thus a human PPAR γ expression plasmid named pSG5-hPPAR g was obtained. The nucleotide sequence of the inserted DNA fragment was confirmed to be identical sequence to the human PPAR γ 2 reported by the dideoxy method.
Vector pGV-P2 digestion products was prepared by digestion using the restriction enzymes, NheI and XhoI, and purified by 1.0% agarose-gel electrophoresis. The DNA oligomers, S2 and AS2 obtained in Procedure 2, were mixed together and were incubated in a hot bath at 94° C. for 1 min. After the annealing was partially broken, they were further incubated at 25° C. for 1 hr. Thus double-stranded DNA with annealing of S2 and AS2 was formed. Then, the terminus of the double-stranded DNA with annealing of S2 and AS2 was phosphorylated with DNA polynucleotide kinase (TOYOBO CO., LTD). After that, it was ligated to the pGV-P2 digestion products which were prepared previously using the NheI site and XhoI site. Thus the reporter plasmid pGV-P2-PPRE was obtained.
Using the plasmid obtained by the procedures 3 and 4, transformation of Escherichia coli HB-101 strain was carried out by conventional methods. HB-101 strain having the plasmid was incubated in L-broth medium (containing 10 g of trypton (Difco), 5 g of yeast extract (Difco), 5 g of sodium chloride in 1 L of aqueous solution) containing 100 μg/ml of ampicillin at 37° C. for 17 hrs. Then, each plasmid was purified by the alkaline-SDS method and employed for the gene transfection to mammalian cells. After mixing the pSG5-hPPARg, PGV-P2-PPRE and LipofectAMINE reagent (GIBCO BRL), the human osteosarcoma MG63 was transiently transfected. Then the cells were recovered. The recovered cells were plated on a 96-well plate so as to be 30,000 cells/well and cultured in a CO2 incubator (NAPCO) at 37° C. for 24 hr under the condition of 5% CO2, 95%-RH.
Various concentrations of the test compound alone were added to culturing medium of the cells prepared in the Procedure 5. After 24 hr of culturing, LT2.0 (TOYO INK MFG CO., LTD), a luciferase substrate, was added to the medium free culture plate. […]
Background: A reporter such as luciferase makes a cellular process visible.

Assay [2] has as its system Mouse preadipocyte strain 3T3-L1. The assay can be described thus: Inhibition of differentiation as an indication of acetic acid uptake. The note with it: control (0.01% dimethylsulfoxide) = 100%; for activity at 0.1 µM: Mus musculus, 3T3-L1, 0.1 μM test substance, read-out: Rate of Uptake (%) of [2-14C] acetic acid. The class given is cell-based. In a few lines: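 Differentiation is indexed by 1 hr [2-14C]acetic acid incorporation, measured by scintillation counting and given as uptake relative to 0.01% DMSO control (100%). Mouse 3T3-L1 preadipocytes, pre-grown 10 days, received 0.1 μM test substance throughout a 4-day insulin/IBMX/dexamethasone induction, followed by 2 days' maintenance culture.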

Assay [3] has as its system TNF-α production. The assay can be described thus: Inhibitory activity against cytokine (TNF-α) production in LPS-stimulated RAW264.7 cells. The class given is cell-based, mouse. The note with it: Mus musculus, RAW264.7, 15 h, 1 μM test compound, LPS 10 ng/mL. The protocol: The mouse monocyte/macrophage cell line, RAW264.7 (ATCC TIB71) was purchased from Dainippon Pharmaceutical Co., Ltd. The RAW264.7 cells were cultured in a CO2 incubator (37° C., 95% of humidity, 5% of CO2) by using the Dulbecco's modified Eagle's medium (DMEM medium; GIBCO, Cat. No. 11995-040) containing bovine fetal serum (the final concentration: 10% (v/v), MOREGATE, lot No. 474030), penicillin G (the final concentration: 50 units/mL […], GIBCO) and streptomycin (the final concentration: 20 μg/mL, GIBCO).
Sixty (60) μL of the RAW264.7 cell suspension (83,000 cells/mL) were plated into each well of a 96-well microplate (5,000 cells/well). After the cells were cultured for 4 hr in a CO2 incubator, 40 μL of DMEM medium containing 25 ng/mL of LPS (Sigma-Aldrich Japan K. K.) were added into each well (final concentration of LPS: 10 ng/mL). The test compound dissolved in DMSO at a concentration of 1 mM was diluted with DMEM medium by 20 times. Then 2 μL/well of the diluted solution were added to wells containing the plated cells (final concentration of the test compound: 1 μM). As the control, 2 μL/well of DMSO diluted with DMEM medium by 20 times were added to wells containing the plated cells either with LPS (final concentration: 10 ng/mL) or without LPS. After these cells were cultured in a CO2 incubator for 15 hr, the supernatant of the medium was recovered. The amount of mTNF-α in the medium supernatant was determined with a mouse TNF-α ELISA kit Quantikine M (R&D System), according to the experiment protocol attached with the kit.
The inhibitory activity of the test compound against TNF-α production was calculated according to the following equation.
A: The amount of TNF-α in the presence of test compound
B: The amount of TNF-α in the control without LPS
C: The amount of TNF-α in the control with 10 ng/mL of LPS
Inhibitory Activity of the Test Compound against TNF-α Production (%)=100−(A−B)/(C−B)×100

In assay [4] the test system is Rat white adipocytes. The assay can be described thus: Stimulation of differentiation of the adipocytes (Oil Red O). The class given is cell-based. The note with it: Rattus norvegicus, Adipocyte, 120 h, 100 nM test compound; 5 days; Oil Red O ABS550; control = 100%, blank = 0%; Table 7; read-out: Rate of Differentiation (%). In a few lines: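 Oil Red O lipid staining, absorbance 550 nm after DMSO extraction, quantified differentiation of rat white adipocytes exposed 5 days to compound (final 100 nM, 0.1% DMSO) in differentiation medium. Percent differentiation normalised between cell-free blank (0%) and DMSO control (100%).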

Assay [5] has as its system Rat white adipocytes. The assay can be described thus: Inhibition of the differentiation of adipocytes (Oil Red O). The class given is cell-based. Conditions: Rattus norvegicus, Adipocyte, 120 h, 100 nM test compound; 5 days; Oil Red O ABS550; control = 100%, blank = 0%; Table 3; read-out: Rate of Differentiation (%). The essentials: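 Rat white preadipocytes, 5,000 cells/well, given differentiation medium with compound at 100 nM final (0.1% DMSO) for 5 days at 37 °C. Lipid stained with Oil Red O, eluted in DMSO, read at 550 nm; differentiation % relative to DMSO control (100%) and blank (0%).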

The structures appear in SMILES notation.

The EC50 is the midpoint of the concentration-response curve. A high value points to weaker potency. Compound `Cc1cnc(NC(=O)c2cc([N+](=O)[O-])ccc2Cl)c(C)c1` [Example 74, N-(3,5-Dimethylpyriridin-2-yl)-(2-chloro-5-nitrophenyl)carboxamide] had a half-maximal effective concentration (EC50) in assay [1] of 5.1 nM. The “Rate of Uptake (%) of [2-14C] acetic acid” value in assay [2] (0.1 μM test substance) turned out to be 70.4%.
Broadly, the inhibition is the share of the control response that was lost under treatment. A higher inhibition goes with a strong effect. Take `CC(=O)Oc1ccc(-c2ccc(NC(=O)c3cc([N+](=O)[O-])ccc3Cl)cc2)cc1` [Example 134, N-[4-(4-Acetoxyphenyl)phenyl]-(2-chloro-5-nitrophenyl)carboxamide]: the inhibition at 1 µM in assay [3] came out at 16.4%. Further, the activity at 0.1 µM in assay [4] worked out at 120%.
As for `O=C(Nc1ccc(NC(=O)c2cc([N+](=O)[O-])ccc2Cl)cc1)c1cccnc1` [Example 123, N-[4-(Pyridin-3-ylcarbonylamino)phenyl]-(2-chloro-5-nitrophenyl)carboxamide], the inhibition at 1 µM in assay [3] amounted to 15.1%. Moreover, the activity at 0.1 µM in assay [2] amounted to 96.2%; in assay [4], 148%.
With `O=C(Nc1nc2ccc(Cl)cc2s1)c1cc([N+](=O)[O-])ccc1Cl` [Example 68, N-(6-Chlorobenzothiazol-2-yl)-(2-chloro-5-nitrophenyl)carboxamide], in assay [3], the inhibition at 1 µM came out at 15.2%. The activity at 0.1 µM in assay [2] was determined as 67.9%; in assay [4], 116%.
`O=C(Nc1ccc(C(=O)N2CCN(c3ccccc3)CC2)cc1)c1cc([N+](=O)[O-])ccc1Cl` [Example 165, N-[4-(4-Phenylpiperazin-1-ylcarbonyl)phenyl]-(2-chloro-5-nitrophenyl)carboxamide] displayed an inhibition at 1 µM in assay [3] of 15.7%. Moreover, the activity at 0.1 µM in assay [5] was 85.8%.
As to `COC(=O)c1cscc1NC(=O)c1cc([N+](=O)[O-])ccc1Cl` [Example 76, N-(4-Methoxycarbonylthiophen-3-yl)-(2-chloro-5-nitrophenyl)carboxamide], in assay [1], a half-maximal response (EC50) required 120 nM. The activity at 0.1 µM in assay [2] amounted to 54.3%.
In the same order, the values of `CCCCNC(=O)NS(=O)(=O)c1ccc(NC(=O)c2cc([N+](=O)[O-])ccc2Cl)cc1` [Example 107, N-[4-(Butylaminocarbonylaminosulfonyl)phenyl]-(2-chloro-5-nitrophenyl)carboxamide] are 88 nM and 71.3%.
With `CCc1ccccc1NC(=O)c1cc([N+](=O)[O-])ccc1Cl` [Example 13, N-(2-Ethylphenyl)-(2-chloro-5-nitrophenyl)carboxamide], the inhibition at 1 µM in assay [3] amounted to 16.2%. The activity at 0.1 µM in assay [2] was found to be 93%; in assay [4], 127%.
In turn, `Nc1cccc(-c2csc(NC(=O)c3cc([N+](=O)[O-])ccc3Cl)n2)c1` [Example 253, N-[4-(3-Aminophenyl)thiazol-2-yl]-(2-chloro-5-nitrophenyl)carboxamide] returned an inhibition at 1 µM in assay [3] of 29%. Further, the activity at 0.1 µM in assay [5] is 55.7%.
For the compound `CCc1ccc(NC(=O)c2cc([N+](=O)[O-])ccc2Cl)cc1` [Example 12, N-(4-Ethylphenyl)-(2-chloro-5-nitrophenyl)carboxamide], the inhibition at 1 µM in assay [3] worked out at 21.8%. Moreover, the results for the activity at 0.1 µM in assay [2] and in assay [4] were 66.4% and 120%, respectively.
Consider `CCCCCCN(CCCC)c1ccc(-c2ccc(NC(=O)c3cc([N+](=O)[O-])ccc3Cl)cc2)cc1` [Example 199, N-[4-[4-(N-Butyl-N-hexylamino)phenyl]phenyl]-(2-chloro-5-nitrophenyl)carboxamide], for which, in assay [3], the inhibition at 1 µM was 20.8%. Further, the activity at 0.1 µM in assay [5] was determined as 35.8%.
`CCOC(=O)c1c(NC(=O)c2cc([N+](=O)[O-])ccc2Cl)sc2c1CCCC2` [Example 79, N-[3-Carboethoxy-4,5,6,7-tetrahydrobenzo[b]thiophen-2-yl]-(2-chloro-5-nitrophenyl)carboxamide] gave a half-maximal effective concentration (EC50) in assay [1] of 68 nM. In addition, the activity at 0.1 µM in assay [2] was determined as 41.5%.
